Laboratory results from patent publication EP4722207A1, “OXOISOINDOLINYL-SUBSTITUTED TETRAHYDROPYRIMIDINEDIONE DERIVATIVE AND USE THEREOF” (Gluetacs Therapeutics (Shanghai) Co., Ltd., priority 2023, dated 2024).

How the values were obtained:
H292 = assay: Cell viability assay (CellTiter-Meiluncell Luminescent), tumor cell proliferation, H292; conditions: Homo sapiens, NCI-H292, 96 h; for inhibition at 0.01 µM: read-out: Inhibition Rate at 10 nM (%); for inhibition at 0.5 µM: read-out: Inhibition Rate at 500 nM (%)
GSPT1 = target: T1, GSPT1 (Homo sapiens, UniProt P15170+Q96SW2); assay: Western-blot assay, substrate protein degradation in hPBMCs: GSPT1; assay type: cell-based; conditions: 24 hours of compound treatment, 50 nM and 500 nM
T1 construct: effects of the compounds of the present disclosure on the expression of target proteins in cells; endogenous in cells; host or cells: human PBMCs (hPBMCs)

IKZF1 = target: T2, IKZF1 (Homo sapiens, UniProt Q13422+Q96SW2); assay: Western-blot assay, substrate protein degradation in hPBMCs: IKZF1; assay type: cell-based; conditions: 24 hours of compound treatment, 50 nM and 500 nM
T2 construct: effects of the compounds of the present disclosure on the expression of target proteins in cells; endogenous in cells; host or cells: human PBMCs (hPBMCs)

CK1α = target: T3, CK1α (Homo sapiens, UniProt P48729+Q96SW2); assay: Western-blot assay, substrate protein degradation in hPBMCs: CK1α; assay type: cell-based; conditions: 24 hours of compound treatment, 50 nM and 500 nM
T3 construct: effects of the compounds of the present disclosure on the expression of target proteins in cells; endogenous in cells; host or cells: human PBMCs (hPBMCs)

WEE1 = target: T4, WEE1 (Homo sapiens, UniProt P30291+Q96SW2); assay: Western-blot assay, substrate protein degradation in hPBMCs: WEE1; assay type: cell-based; conditions: 24 hours of compound treatment, 50 nM and 500 nM
T4 construct: effects of the compounds of the present disclosure on the expression of target proteins in cells; endogenous in cells; host or cells: human PBMCs (hPBMCs)

IKZF3 = target: T5, IKZF3 (Homo sapiens, UniProt Q96SW2+Q9UKT9); assay: Western-blot assay, substrate protein degradation in hPBMCs: IKZF3; assay type: cell-based; conditions: 24 hours of compound treatment, 50 nM and 500 nM
T5 construct: effects of the compounds of the present disclosure on the expression of target proteins in cells; endogenous in cells; host or cells: human PBMCs (hPBMCs)

IKZF2 = target: T6, IKZF2 (Homo sapiens, UniProt Q96SW2+Q9UKS7); assay: Western-blot assay, substrate protein degradation in hPBMCs: IKZF2; assay type: cell-based; conditions: 24 hours of compound treatment, 50 nM and 500 nM
T6 construct: effects of the compounds of the present disclosure on the expression of target proteins in cells; endogenous in cells; host or cells: human PBMCs (hPBMCs)
T6 sequence (Q9UKS7 whole entry): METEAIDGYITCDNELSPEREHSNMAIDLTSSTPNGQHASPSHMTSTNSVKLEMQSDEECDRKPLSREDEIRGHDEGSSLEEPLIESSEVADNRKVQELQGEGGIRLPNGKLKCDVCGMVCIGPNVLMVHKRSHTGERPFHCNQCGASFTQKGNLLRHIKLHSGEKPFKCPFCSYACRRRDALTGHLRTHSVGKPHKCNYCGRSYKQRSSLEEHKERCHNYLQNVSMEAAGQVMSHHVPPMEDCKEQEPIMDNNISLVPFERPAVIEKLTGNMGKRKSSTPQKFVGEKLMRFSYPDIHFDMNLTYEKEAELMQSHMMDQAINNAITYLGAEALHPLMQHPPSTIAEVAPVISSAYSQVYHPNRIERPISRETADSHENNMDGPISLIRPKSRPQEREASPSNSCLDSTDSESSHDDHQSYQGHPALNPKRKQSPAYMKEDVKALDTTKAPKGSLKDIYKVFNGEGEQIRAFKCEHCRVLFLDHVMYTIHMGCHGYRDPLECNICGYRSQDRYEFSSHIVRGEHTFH
T6 sequence (Q96SW2 whole entry): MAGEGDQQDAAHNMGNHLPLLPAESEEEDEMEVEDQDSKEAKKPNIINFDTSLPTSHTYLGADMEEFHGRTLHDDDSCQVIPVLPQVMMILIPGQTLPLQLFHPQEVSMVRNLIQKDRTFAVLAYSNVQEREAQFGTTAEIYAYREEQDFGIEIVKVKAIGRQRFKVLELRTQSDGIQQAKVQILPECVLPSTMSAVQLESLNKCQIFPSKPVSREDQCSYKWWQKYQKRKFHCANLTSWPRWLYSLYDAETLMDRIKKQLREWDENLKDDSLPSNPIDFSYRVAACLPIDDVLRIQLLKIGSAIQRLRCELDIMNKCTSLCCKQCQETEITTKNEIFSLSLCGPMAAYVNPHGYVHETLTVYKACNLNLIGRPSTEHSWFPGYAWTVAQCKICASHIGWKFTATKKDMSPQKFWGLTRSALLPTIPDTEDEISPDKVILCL
T6 sequence (Q16531 whole entry partner): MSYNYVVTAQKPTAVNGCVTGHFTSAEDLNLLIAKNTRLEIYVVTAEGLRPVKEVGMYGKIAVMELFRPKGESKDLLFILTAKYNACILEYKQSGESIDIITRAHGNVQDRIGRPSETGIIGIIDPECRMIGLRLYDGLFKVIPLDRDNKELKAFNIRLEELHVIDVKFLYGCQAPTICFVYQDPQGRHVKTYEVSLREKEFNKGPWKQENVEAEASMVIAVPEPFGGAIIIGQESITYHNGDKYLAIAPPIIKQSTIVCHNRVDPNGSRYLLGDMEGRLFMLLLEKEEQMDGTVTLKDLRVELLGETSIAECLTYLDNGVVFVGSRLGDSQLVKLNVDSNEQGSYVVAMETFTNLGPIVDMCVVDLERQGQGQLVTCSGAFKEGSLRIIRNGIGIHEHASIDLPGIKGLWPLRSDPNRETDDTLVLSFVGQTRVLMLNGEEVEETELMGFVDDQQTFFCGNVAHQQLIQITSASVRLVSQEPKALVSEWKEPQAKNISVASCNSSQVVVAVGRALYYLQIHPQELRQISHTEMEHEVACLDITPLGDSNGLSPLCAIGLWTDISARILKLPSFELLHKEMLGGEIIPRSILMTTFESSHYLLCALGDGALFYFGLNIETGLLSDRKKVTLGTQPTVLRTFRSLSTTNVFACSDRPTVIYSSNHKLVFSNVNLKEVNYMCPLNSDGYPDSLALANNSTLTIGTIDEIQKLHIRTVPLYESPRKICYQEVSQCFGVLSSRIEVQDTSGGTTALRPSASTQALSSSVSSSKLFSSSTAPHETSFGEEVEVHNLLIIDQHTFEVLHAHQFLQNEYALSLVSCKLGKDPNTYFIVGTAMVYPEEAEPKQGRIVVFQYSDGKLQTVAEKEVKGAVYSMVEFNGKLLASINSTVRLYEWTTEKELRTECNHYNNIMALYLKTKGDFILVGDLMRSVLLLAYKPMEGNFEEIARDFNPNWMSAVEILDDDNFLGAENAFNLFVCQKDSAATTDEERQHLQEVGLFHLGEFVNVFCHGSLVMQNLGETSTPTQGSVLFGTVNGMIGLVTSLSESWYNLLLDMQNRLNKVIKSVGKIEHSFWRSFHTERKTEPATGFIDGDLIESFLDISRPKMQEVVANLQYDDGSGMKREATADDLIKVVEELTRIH

T1 sequence (P15170 whole entry): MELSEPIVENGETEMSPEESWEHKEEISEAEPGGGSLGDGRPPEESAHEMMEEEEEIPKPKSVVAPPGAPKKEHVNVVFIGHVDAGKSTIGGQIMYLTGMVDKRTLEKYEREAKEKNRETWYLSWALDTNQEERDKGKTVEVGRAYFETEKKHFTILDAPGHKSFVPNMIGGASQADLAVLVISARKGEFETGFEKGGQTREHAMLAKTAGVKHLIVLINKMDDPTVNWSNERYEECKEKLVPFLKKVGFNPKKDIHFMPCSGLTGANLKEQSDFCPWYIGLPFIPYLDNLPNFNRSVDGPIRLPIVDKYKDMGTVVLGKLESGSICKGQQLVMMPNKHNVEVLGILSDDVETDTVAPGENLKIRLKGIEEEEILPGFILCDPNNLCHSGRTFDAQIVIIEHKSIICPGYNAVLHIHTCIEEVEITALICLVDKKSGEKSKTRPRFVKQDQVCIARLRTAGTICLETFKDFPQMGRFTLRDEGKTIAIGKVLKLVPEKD
T1 sequence (Q96SW2 whole entry): as the sequence (Q96SW2 whole entry) above
T1 sequence (Q16531 whole entry partner): as the sequence (Q16531 whole entry partner) above
T4 sequence (P30291 whole entry): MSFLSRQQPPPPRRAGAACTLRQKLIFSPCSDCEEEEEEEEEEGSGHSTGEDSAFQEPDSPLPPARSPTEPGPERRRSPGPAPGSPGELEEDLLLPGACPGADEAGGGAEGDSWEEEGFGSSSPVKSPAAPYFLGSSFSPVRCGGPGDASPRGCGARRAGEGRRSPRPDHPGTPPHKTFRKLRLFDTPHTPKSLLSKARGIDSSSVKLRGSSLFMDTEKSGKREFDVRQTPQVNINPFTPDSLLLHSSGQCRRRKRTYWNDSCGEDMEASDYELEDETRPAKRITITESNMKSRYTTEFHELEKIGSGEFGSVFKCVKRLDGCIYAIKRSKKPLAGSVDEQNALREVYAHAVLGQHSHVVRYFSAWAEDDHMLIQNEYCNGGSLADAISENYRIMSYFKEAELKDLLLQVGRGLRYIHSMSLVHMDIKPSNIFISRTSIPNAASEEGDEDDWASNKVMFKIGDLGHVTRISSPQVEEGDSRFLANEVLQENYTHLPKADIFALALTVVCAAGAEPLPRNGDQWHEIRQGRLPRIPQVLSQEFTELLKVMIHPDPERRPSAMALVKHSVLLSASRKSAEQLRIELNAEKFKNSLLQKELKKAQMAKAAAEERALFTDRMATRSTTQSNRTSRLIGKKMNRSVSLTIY
T4 sequence (Q96SW2 whole entry): as the sequence (Q96SW2 whole entry) above
T4 sequence (Q16531 whole entry partner): as the sequence (Q16531 whole entry partner) above
T3 sequence (P48729 whole entry): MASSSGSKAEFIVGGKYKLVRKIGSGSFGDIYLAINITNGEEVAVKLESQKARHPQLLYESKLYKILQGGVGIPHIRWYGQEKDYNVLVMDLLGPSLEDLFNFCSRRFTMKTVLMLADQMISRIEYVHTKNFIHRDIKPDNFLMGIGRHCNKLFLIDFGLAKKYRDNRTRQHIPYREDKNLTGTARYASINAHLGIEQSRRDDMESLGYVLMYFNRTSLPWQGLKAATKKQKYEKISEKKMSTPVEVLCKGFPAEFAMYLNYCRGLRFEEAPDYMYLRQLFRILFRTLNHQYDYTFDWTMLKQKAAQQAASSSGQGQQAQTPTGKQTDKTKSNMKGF
T3 sequence (Q96SW2 whole entry): as the sequence (Q96SW2 whole entry) above
T3 sequence (Q16531 whole entry partner): as the sequence (Q16531 whole entry partner) above
T2 sequence (Q13422 whole entry): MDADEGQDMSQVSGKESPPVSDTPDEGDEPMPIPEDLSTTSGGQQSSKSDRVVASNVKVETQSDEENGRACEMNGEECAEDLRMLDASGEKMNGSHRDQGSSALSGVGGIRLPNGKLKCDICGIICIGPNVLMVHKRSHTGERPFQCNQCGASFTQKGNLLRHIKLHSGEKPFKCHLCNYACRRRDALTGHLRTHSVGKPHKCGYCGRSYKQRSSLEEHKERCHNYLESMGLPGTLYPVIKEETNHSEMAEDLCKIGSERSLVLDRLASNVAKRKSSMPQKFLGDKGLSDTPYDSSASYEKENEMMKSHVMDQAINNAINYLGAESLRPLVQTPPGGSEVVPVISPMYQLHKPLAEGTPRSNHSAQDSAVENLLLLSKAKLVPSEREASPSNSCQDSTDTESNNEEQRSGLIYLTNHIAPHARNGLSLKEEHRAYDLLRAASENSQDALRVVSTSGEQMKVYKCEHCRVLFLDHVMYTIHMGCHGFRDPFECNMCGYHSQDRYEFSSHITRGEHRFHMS
T2 sequence (Q96SW2 whole entry): as the sequence (Q96SW2 whole entry) above
T2 sequence (Q16531 whole entry partner): as the sequence (Q16531 whole entry partner) above

| SMILES | inhibition at 0.01 µM (H292) [%] | inhibition at 0.5 µM (H292) [%] | substrate protein remaining % GSPT1 (GSPT1) | substrate protein remaining % IKZF1 (IKZF1) | substrate protein remaining % CK1α (CK1α) | substrate protein remaining % WEE1 (WEE1) | substrate protein remaining % IKZF3 (IKZF3) | substrate protein remaining % IKZF2 (IKZF2) |
| --- | --- | --- | --- | --- | --- | --- | --- | --- |
| O=C1CCN(N2Cc3cc(CN4CC(n5cnc6cc(F)ccc65)C4)ccc3C2=O)C(=O)N1 [GT-07723, 1-(5-((3-(5-fluoro-1H-benzo[d]imidazol-1-yl)azetidin-1-yl)methyl)-1-oxoisoindolin-2-yl)dihydropyrimidine-2,4(1H,3H)-dione] | 15 to 20 | 5 to 10 | – | – | – | – | – | – |
| Cc1nc(N2CCN(Cc3ccc4c(c3)C(=O)N(N3CCC(=O)NC3=O)C4=O)CC2)c2ccsc2n1 [GT-08100, 2-(2,4-dioxotetrahydropyrimidin-1(2H)-yl)-5-((4-(2-methylthieno[2,3-d]pyrimidin-4-yl)piperazin-1-yl)methyl)isoindoline-1,3-dione] | 5 to 10 | 10 to 15 | – | – | – | – | – | – |
| O=C1CCN(N2C(=O)c3ccc(CN4CCN(c5ncnc6sc7c(c56)CCC7)CC4)cc3C2=O)C(=O)N1 [GT-08103, 5-((4-(6,7-dihydro-5H-cyclopenta[4,5]thieno[2,3-d]pyrimidin-4-yl)piperazin-1-yl)methyl)-2-(2,4-dioxotetrahydropyrimidin-1(2H)-yl)isoindoline-1,3-dione] | 15 to 20 | 15 to 20 | B (80%< substrate protein remaining %≤ 100%) | B (80%< substrate protein remaining %≤ 100%) | B (80%< substrate protein remaining %≤ 100%) | B (80%< substrate protein remaining %≤ 100%) | A (0% ≤ substrate protein remaining % ≤ 80%) | A (0% ≤ substrate protein remaining % ≤ 80%) |
| O=C1CCN(N2C(=O)c3ccc(CN4CCN(c5ncc6ccsc6n5)CC4)cc3C2=O)C(=O)N1 [GT-08105, 2-(2,4-dioxotetrahydropyrimidin-1(2H)-yl)-5-((4-(thieno[2,3-d]pyrimidin-2-yl)piperazin-1-yl)methyl)isoindoline-1,3-dione] | 10 to 15 | 10 to 15 | A (0% ≤ substrate protein remaining % ≤ 80%) | B (80%< substrate protein remaining %≤ 100%) | B (80%< substrate protein remaining %≤ 100%) | B (80%< substrate protein remaining %≤ 100%) | A (0% ≤ substrate protein remaining % ≤ 80%) | A (0% ≤ substrate protein remaining % ≤ 80%) |
| O=C1CCN(N2Cc3cc(CN4CCC(c5ncc6ccsc6n5)CC4)ccc3C2=O)C(=O)N1 [GT-08115, 1-(1-oxo-5-((4-(thieno[2,3-d]pyrimidin-2-yl)piperidin-1-yl)methyl)isoindolin-2-yl)dihydropyrimidine-2,4(1H,3H)-dione] | 20 to 40 | 15 to 20 | A (0% ≤ substrate protein remaining % ≤ 80%) | B (80%< substrate protein remaining %≤ 100%) | A (0% ≤ substrate protein remaining % ≤ 80%) | B (80%< substrate protein remaining %≤ 100%) | B (80%< substrate protein remaining %≤ 100%) | B (80%< substrate protein remaining %≤ 100%) |
| CC1(C)[C@@H]2CC[C@]1(CS(=O)(=O)NCc1ccc3c(c1)CN(N1CCC(=O)NC1=O)C3=O)C(=O)C2 [GT-08133, 1-((1R,4R)-7,7-dimethyl-2-oxobicyclo[2.2.1]heptan-1-yl)-N-((2-(2,4-dioxotetrahydropyrimidin-1(2H)-yl)-1-oxoisoindolin-5-yl)methyl)methanesulfonamide] | 15 to 20 | 20 to 40 | – | – | – | – | – | – |
| O=C1CCN(N2C(=O)c3ccc(CN4CCC(c5ncnc6sc7c(c56)CCCC7)CC4)cc3C2=O)C(=O)N1 [GT-08424, 2-(2,4-dioxotetrahydropyrimidin-1(2H)-yl)-5-((4-(5,6,7,8-tetrahydrobenzo[4,5]thieno[2,3-d]pyrimidin-4-yl)piperidin-1-yl)methyl)isoindoline-1,3-dione] | 20 to 40 | 10 to 15 | A (0% ≤ substrate protein remaining % ≤ 80%) | B (80%< substrate protein remaining %≤ 100%) | A (0% ≤ substrate protein remaining % ≤ 80%) | B (80%< substrate protein remaining %≤ 100%) | B (80%< substrate protein remaining %≤ 100%) | B (80%< substrate protein remaining %≤ 100%) |
| O=C1CCN(N2C(=O)c3ccc(CN4CCC(c5ncnc6sc7c(c56)CCC7)CC4)cc3C2=O)C(=O)N1 [GT-08425, 5-((4-(6,7-dihydro-5H-cyclopenta[4,5]thieno[2,3-d]pyrimidin-4-yl)piperidin-1-yl)methyl)-2-(2,4-dioxotetrahydropyrimidin-1(2H)-yl)isoindoline-1,3-dione] | 15 to 20 | 5 to 10 | – | – | – | – | – | – |
| Cc1nc(C2CCN(Cc3ccc4c(c3)C(=O)N(N3CCC(=O)NC3=O)C4=O)CC2)c2c3c(sc2n1)CCC3 [GT-08426, 2-(2,4-dioxotetrahydropyrimidin-1(2H)-yl)-5-((4-(2-methyl-6,7-dihydro-5H-cyclopenta[4,5]thieno[2,3-d]pyrimidin-4-yl)piperidin-1-yl)methyl)isoindoline-1,3-dione] | 20 to 40 | 20 to 40 | – | – | – | – | – | – |
| O=C1CCN(N2C(=O)c3ccc(CN4CCC(c5ncc6ccsc6n5)CC4)cc3C2=O)C(=O)N1 [GT-08427, 2-(2,4-dioxotetrahydropyrimidin-1(2H)-yl)-5-((4-(thieno[2,3-d]pyrimidin-2-yl)piperidin-1-yl)methyl)isoindoline-1,3-dione] | 15 to 20 | 20 to 40 | B (80%< substrate protein remaining %≤ 100%) | B (80%< substrate protein remaining %≤ 100%) | B (80%< substrate protein remaining %≤ 100%) | A (0% ≤ substrate protein remaining % ≤ 80%) | B (80%< substrate protein remaining %≤ 100%) | A (0% ≤ substrate protein remaining % ≤ 80%) |
| Cc1csc2ncnc(C3=CCN(Cc4ccc5c(c4)C(=O)N(N4CCC(=O)NC4=O)C5=O)CC3)c12 [GT-08428, 2-(2,4-dioxotetrahydropyrimidin-1(2H)-yl)-5-((4-(5-methylthieno[2,3-d]pyrimidin-4-yl)-3,6-dihydropyridin-1(2H)-yl)methyl)isoindoline-1,3-dione] | 5 to 10 | 20 to 40 | B (80%< substrate protein remaining %≤ 100%) | B (80%< substrate protein remaining %≤ 100%) | B (80%< substrate protein remaining %≤ 100%) | A (0% ≤ substrate protein remaining % ≤ 80%) | A (0% ≤ substrate protein remaining % ≤ 80%) | A (0% ≤ substrate protein remaining % ≤ 80%) |
| CC(C)c1cc2c(C3=CCN(Cc4ccc5c(c4)C(=O)N(N4CCC(=O)NC4=O)C5=O)CC3)ncnc2s1 [GT-08429, 2-(2,4-dioxotetrahydropyrimidin-1(2H)-yl)-5-((4-(6-isopropylthieno[2,3-d]pyrimidin-4-yl)-3,6-dihydropyridin-1(2H)-yl)methyl)isoindoline-1,3-dione] | 20 to 40 | 20 to 40 | – | – | – | – | – | – |
| O=C1CCN(N2C(=O)c3ccc(CN4CCN(c5nc(N6CCOCC6)nc6c5SCC6)CC4)cc3C2=O)C(=O)N1 [GT-08450, 2-(2,4-dioxotetrahydropyrimidin-1(2H)-yl)-5-((4-(2-morpholino-6,7-dihydrothieno[3,2-d]pyrimidin-4-yl)piperazin-1-yl)methyl)isoindoline-1,3-dione] | – | – | A (0% ≤ substrate protein remaining % ≤ 80%) | B (80%< substrate protein remaining %≤ 100%) | B (80%< substrate protein remaining %≤ 100%) | B (80%< substrate protein remaining %≤ 100%) | B (80%< substrate protein remaining %≤ 100%) | B (80%< substrate protein remaining %≤ 100%) |
| O=C1CCN(N2C(=O)c3ccc(CN4CCN(c5nc(N6CCOCC6)c6sccc6n5)CC4)cc3C2=O)C(=O)N1 [GT-08456, 2-(2,4-dioxotetrahydropyrimidin-1(2H)-yl)-5-((4-(4-morpholinothieno[3,2-d]pyrimidin-2-yl)piperazin-1-yl)methyl)isoindoline-1,3-dione] | 5 to 10 | 20 to 40 | – | – | – | – | – | – |
| O=C1CCN(N2Cc3cc(CN4CCN(c5nc(N6CCNCC6)c6sccc6n5)CC4)ccc3C2=O)C(=O)N1 [GT-08949, 1-(1-oxo-5-((4-(4-(piperazin-1-yl)thieno[3,2-d]pyrimidin-2-yl)piperazin-1-yl)methyl)isoindolin-2-yl)dihydropyrimidine-2,4(1H,3H)-dione] | – | – | A (0% ≤ substrate protein remaining % ≤ 80%) | B (80%< substrate protein remaining %≤ 100%) | B (80%< substrate protein remaining %≤ 100%) | B (80%< substrate protein remaining %≤ 100%) | B (80%< substrate protein remaining %≤ 100%) | B (80%< substrate protein remaining %≤ 100%) |
